Structures can show the parent of a compound that is named as a salt.
Legend:
[1] = test system: T1, cAMP-dependent protein kinase; experiment: 3',5'-cAMP-dependent protein kinase inhibition (catalytic sub-unit, kemptide substrate); assay type: biochemical; conditions: 40 μM ATP, 15 minutes at 30° C.; for inhibition at 45 µg/mL: pH 6.9, 45 μg/ml inhibitor, read-out: % inhibition of cAMP-dependent protein kinase at an inhibitor concentration of 45 μg/ml; for % inhibition of cAMP-dependent protein kinase at an inhibitor concentration of 45 μg/ml: 45 μg/ml inhibitor, pH 6.9, hydrochloride
T1 construct: purchased Sigma Chemical Co., St. Louis, Mo., USA
Method: Assay for 3', 5'-cAMP-Dependent Protein Kinase Inhibition
The catalytic sub-unit of cAMP-dependent protein kinase (Sigma) was reconstituted as described by Sigma (Sigma Chemical Co., St. Louis, Mo., USA). The enzyme activity was measured with kemptide (Sigma) (Leu-Arg-Arg-Ala-Ser-Leu-Gly) as the substrate. The inhibitor was preincubated with the enzyme, substrate (190 μM), Mg^2+ (5 mM), 0.25 mg/ml of BSA and 3.75 mM of mercaptoethanol in 50 mM of MOPA (4-morpholinopropanesulfonic acid), pH 6.9. The reaction was initiated by adding γ-^32 P ATP (40 μM). After 15 minutes at 30° C., an aliquot amount was transferred to p81 ion exchange paper (2×2 cm; Whatman Paper Ltd., Great Britain), the paper was immersed in 75 mM H3 PO4, washed and dried, and the incorporation of ^32 P was determined by means of a liquid scintillation counter.

LXF 529 = experiment: SRC Tumor Test (implantation under renal capsule of nude mouse), bronchogenic carcinoma LXF 529; assay type: in vivo, human tumor xenograft in nude mouse; conditions: days 2-15
Method: (§1) Single cell suspensions (from cell culture A 549 or disaggregated human tumor xenografts LXF 529) in Beriplast (Behringwerke AG) were diluted 1:2 with RPMI 1640 supplemented with 15% FCS to a final cell concentration of 10^7 cells/50 μl. This suspension was sucked quickly into 50 μglass capillaries (diameter 1.5 mm), of which the inner walls had been moistered with a thrombin/CaCl2 solution (500 units thrombin in 1 ml 40 mmol CaCl2).
(§2) After solidification of the cell-fibrin mixture (about 5 min at RT) the fibrin clot has been removed from the glass capillary into a petridish by air pressure. The fibrin clot was cut into 2 mm pieces (≈5×10^5 cells per piece) and the pieces were stored in RPMI 1640 supplemented with 15% FCS until implantation.
(§3) A single fibrin piece was transferred under the renal capsule of a nude mouse and, subsequently, two perpendicular diameters of the implanted piece were measured by microscope with an ocular micrometer (day 0). The tumor size was calculated according to
b=diameter perpendicular to a
The substance was given i.v. or p.o. daily on day 2-15 with the maximal tolerable dose (MTD) and a dose 2/3 of the MTD value according to the pretests. 5 mice/group were used.
(§4) On day 21 after implantation the animals were sacrificed, the kidney was exteriorized and the tumor size was measured again. The effectivity of the test drug was calculated from the tumor growth inhibition.
The relative tumor size VR was calculated according the formula [formula] Vt =tumor size at the end of experiment (day 21) V0 =tumor size as day of implantation
Subsequently the median relative tumor size of the treated group (VT) was related to the corresponding median relative tumor size of controls (VC) according to the formula [formula] The statistical significance (p 0.05) of the antitumoral effects was calculated using the Wilcoxon U test.

A 549 = experiment: SRC Tumor Test (implantation under renal capsule of nude mouse), bronchogenic carcinoma A 549; assay type: in vivo; conditions: days 2-15
Method: as §1, §2, §3
b=diameter perpendicular to a […]
as §4
The relative tumor size VR was calculated according the formula [formula] […]

SMILES	inhibition at 45 µg/mL [1] [%]	other results
CCc1cc(=O)c2c(O)cc(O)c(C3CCN(C)CC3O)c2o1 (racemic) [ethyl HCl (±)]	0	–
CN1CCC(c2c(O)cc(O)c3c(=O)cc(-c4ccccc4F)oc23)C(O)C1 (racemic) [2-fluorophenyl HCl (±)]	0	–
CN1CCC(c2c(O)cc(O)c3c(=O)cc(-c4ccc(-c5ccccc5)cc4)oc23)C(O)C1 (racemic) [4-biphenyl HCl (±)]	37	–
CN1CC[C@H](c2c(O)cc(O)c3c(=O)cc(-c4ccccc4)oc23)[C@H](O)C1 (single isomer, unassigned) [phenyl HCl (+), (+)-cis-5,7-dihydroxy-2-phenyl-8-[4-(3-hydroxy-1-methyl)piperidinyl]-4H-1-benzopyran-4-one hydrochloride]	–	% inhibition of cAMP-dependent protein kinase at an inhibitor concentration of 45 μg/ml [1]: 13%
CN1CC[C@H](c2c(O)cc(O)c3c(=O)cc(-c4cccnc4)oc23)[C@H](O)C1 (relative stereo) [3-pyridyl HCl (±), (±)-cis-5,7-dihydroxy-2-(3-pyridyl)-8-[4-(3-hydroxy-1-methyl)piperidinyl]-4H-1-benzopyran-4-one hydrochloride]	0	–
CN1CC[C@H](c2c(O)cc(O)c3c(=O)cc(-c4ccccn4)oc23)[C@H](O)C1 (single isomer, unassigned) [2-pyridyl HCl (-), (-)-cis-5,7-dihydroxy-2-(2-pyridyl)-8-[4-(3-hydroxy-1-methyl)piperidinyl]-4H-1-benzopyran-4-one hydrochloride]	6	–
CN1CC[C@H](c2c(O)cc(O)c3c(=O)cc(-c4ccccc4Cl)oc23)[C@H](O)C1 (single isomer, unassigned) [2-chlorophenyl HCl (+), (+)-cis-5,7-dihydroxy-2-(2-chlorophenyl)-8-[4-(3-hydroxy-1-methyl)piperidinyl]-4H-1-benzopyran-4-one hydrochloride]	27	–
CN1CCC(c2c(O)cc(O)c3c(=O)cc(-c4ccc(Br)cc4)oc23)C(O)C1 (racemic) [4-bromophenyl HCl (±)]	65	–
CN1CC[C@H](c2c(O)cc(O)c3c(=O)cc(-c4ccccc4Cl)oc23)[C@H](O)C1 (single isomer, unassigned) [Exmp. 9, (-)-cis-5,7-Dihydroxy-2-(2-chlorophenyl)-8-[4-(3-hydroxy-1-methyl)piperidinyl]-4H-1-benzopyran-4-one hydrochloride]	–	T/C (LXF 529; LXF 529, 2 mg/kg/day i.v.): 59%; T/C (LXF 529; LXF 529, 4 mg/kg/day i.v.): 51%
CCCc1cc(=O)c2c(O)cc(O)c(C3CCN(C)CC3O)c2o1 (single isomer, unassigned) [n-propyl HCl (-)]	5	–
CN1CCC(c2c(O)cc(O)c3c(=O)cc(Cc4ccccc4Cl)oc23)C(O)C1 (racemic) [(2-chlorophenyl)methyl HCl (±)]	69	–
CN1CCC(c2c(O)cc(O)c3c(=O)cc(-c4ccc(F)cc4)oc23)C(O)C1 (racemic) [4-fluorophenyl HCl (±)]	25	–
CN1CC[C@H](c2c(O)cc(O)c3c(=O)cc(-c4cccc(Br)c4)oc23)[C@H](O)C1 (relative stereo) [Exmp. 17, (±)-cis-5,7-Dihydroxy-2-(3-bromophenyl)-8-[4-(3-hydroxy-1-methyl)piperidinyl]-4H-1-benzopyran-4-one hydrochloride]	–	T/C (A 549; A 549, 35 mg/kg/day i.v.): 70%; T/C (A 549; A 549, 100 mg/kg/day p.o.): 73%; T/C (LXF 529; LXF 529, 25 mg/kg/day i.v., n.s. = not significant (P > 0.05)): 81%; T/C (LXF 529; LXF 529, 35 mg/kg/day i.v.): 67%
CN1CC[C@H](c2c(O)cc(O)c3c(=O)cc(-c4ccccc4)oc23)[C@H](O)C1 (relative stereo) [phenyl HCl (±), (±)-cis-5,7-dihydroxy-2-phenyl-8-[4-(3-hydroxy-1-methyl)piperidinyl]-4H-1-benzopyran-4-one hydrochloride]	48	–
CN1CCC(c2c(O)cc(O)c3c(=O)cc(-c4ccccc4Br)oc23)C(O)C1 (racemic) [2-bromophenyl (±)]	63	–
CCCc1cc(=O)c2c(O)cc(O)c(C3CCN(C)CC3O)c2o1 (racemic) [n-propyl HCl (±)]	0	–
CN1CC[C@H](c2c(O)cc(O)c3c(=O)cc(-c4ccccc4Cl)oc23)[C@H](O)C1 (relative stereo) [2-chlorophenyl HCl (±), (±)-cis-5,7-dihydroxy-2-(2-chlorophenyl)-8-[4-(3-hydroxy-1-methyl)piperidinyl]-4H-1-benzopyran-4-one hydrochloride]	29	–
CN1CC[C@H](c2c(O)cc(O)c3c(=O)cc(-c4cccs4)oc23)[C@H](O)C1 (relative stereo) [2-thiophenyl (±), (±)-cis-5,7-dihydroxy-2-(2-thienyl)-8-[4-(3-hydroxy-1-methyl)piperidinyl]-4H-1-benzopyran-4-one]	14	–
CN1CC[C@H](c2c(O)cc(O)c3c(=O)cc(-c4ccc(O)cc4)oc23)[C@H](O)C1 (relative stereo) [Exmp. 19, (±)-cis-5,7-Dihydroxy-2-(4-hydroxyphenyl)-8-[4-(3-hydroxy-1-methyl)piperidinyl]-4H-1-benzopyran-4-one]	–	T/C (LXF 529; LXF 529, 100 mg/kg/day i.v., n.s. = not significant (P > 0.05)): 98%; T/C (LXF 529; LXF 529, 150 mg/kg/day i.v.): 80%
CN1CC[C@H](c2c(O)cc(O)c3c(=O)cc(-c4ccc5ccccc5c4)oc23)[C@H](O)C1 (relative stereo) [2-naphthyl HCl (±), (±)-cis-5,7-dihydroxy-2-(2-naphthyl)-8-[4-(3-hydroxy-1-methyl)piperidinyl]-4H-1-benzopyran-4-one hydrochloride]	0	–
CN1CC[C@H](c2c(O)cc(O)c3c(=O)cc(-c4ccncc4)oc23)[C@H](O)C1 (relative stereo) [4-pyridyl HCl (±), (±)-cis-5,7-dihydroxy-2-(4-pyridyl)-8-[4-(3-hydroxy-1-methyl)piperidinyl]-4H-1-benzopyran-4-one hydrochloride]	12	–
CN1CCC(c2c(O)cc(O)c3c(=O)cc(-c4ccc(Cl)cc4)oc23)C(O)C1 (racemic) [4-chlorophenyl HCl (±)]	37	–
CN1CC[C@H](c2c(O)cc(O)c3c(=O)cc(-c4ccccn4)oc23)[C@H](O)C1 (relative stereo) [2-pyridyl HCl (±), (±)-cis-5,7-dihydroxy-2-(2-pyridyl)-8-[4-(3-hydroxy-1-methyl)piperidinyl]-4H-1-benzopyran-4-one hydrochloride]	0	–
CN1CC[C@H](c2c(O)cc(O)c3c(=O)cc(-c4ccccc4)oc23)[C@H](O)C1 (single isomer, unassigned) [phenyl HCl (-), (-)-cis-5,7-dihydroxy-2-phenyl-8-[4-(3-hydroxy-1-methyl)piperidinyl]-4H-1-benzopyran-4-one hydrochloride]	–	% inhibition of cAMP-dependent protein kinase at an inhibitor concentration of 45 μg/ml [1]: 46%
Cc1ccc(-c2cc(=O)c3c(O)cc(O)c([C@H]4CCN(C)C[C@H]4O)c3o2)cc1 (relative stereo) [4-methylphenyl HCl (±), (±)-cis-5,7-dihydroxy-2-(4-methylphenyl)-8-[4-(3-hydroxy-1-methyl)piperidinyl]-4H-1-benzopyran-4-one hydrochloride]	55	–

Source: patent publication US5284856A, “Oncogene-encoded kinases inhibition using 4-H-1-benzopyran-4-one derivatives” (Hoechst Aktiengesellschaft, priority 1988, dated 1994)
